In EP0593765A1, “6-SUBSTITUTED LIPID A ANALOG” (priority 1991, dated 1993):

Assays:
neutrophils = test: O₂⁻ production stimulating activity in neutrophils; format: cell-based, C3H/HeN mouse; conditions: compound 10 µg/mℓ, 37°C for 60 minutes, then cytochrome C (80 µM) and FMLP (0.1 µM); SOD-inhibitable cytochrome C reduction
Protocol: The O₂⁻ production stimulating activity in neutrophils was evaluated in the following experimental system [see J. Exp. Med., Vol. 160, 1656 - 1671, 1984].
In the peritoneal cavity of C3H/HeN mouse (male, 8 - 9 weeks old), physiological saline containing 0.2% (w/v) of casein was administered. Three hours later, peritoneal exudate cells (90% or more of which are neutrophils) induced in the peritoneal cavity were collected. These cells (1.7 × 10⁶ cells/ml/tube) were incubated in the presence of the compound of the invention (10 µg/mℓ) at 37°C for 60 minutes, and cytochrome C (80 µM) and fomyl-methionyl-leucyl-phenylalanine (FMLP) (0.1 µM) were added. After reaction for 10 minutes at 37°C in the presence of or in the absence of superoxide dismutase (SOD), the SOD-inhibitable cytochrome C reduction quantity was calculated from the difference of absorbances at 550 nm and 541.7 nm and the molar absorption coefficient (16.5 × 10³). The O₂⁻ production stimulating activity was expressed in the following stimulation percentage. [formula] The compounds of the invention presented the activities as shown in the below table.

interleukin-1 (IL-1) = test: IL-1 producing activity (peripheral blood monocyte fraction; supernatant measured on A375 Met-Mix cells); format: cell-based, human; conditions: 50 µg of compound, 1 × 10⁶ cells/well, 48 hours at 37°C; reciprocal of supernatant dilution showing 50% inhibition
Protocol: The producing activity of interleukin-1 (IL-1) was determined in the following experiment [see Biochem. Biopys. Res. Comm., Vol. 154, 1189 - 1196, 1988].
From 50 mℓ of human peripheral blood, buffy coat was isolated, and peripheral blood monocyte fraction was obtained by using Lymphoprep (Wako Pharmaceutical). After hemolyzing mixed erythrocytes, cells were rinsed twice in Dulbecco's modified Eagle medium (MEM), and suspended in the RPMI 1640 medium containing 5% fetal cow serum (FCS) and 2.5 × 10⁻⁵ M 2-mercaptoethanol. The cells (1 × 10⁶ cells/well) were incubated in a 24-well plate containing 50 µg (50 µℓ) of the compound of the invention for 48 hours at 37°C in the presence of 5% carbon dioxide, and the supernatant of culture was samples as IL-1 induction supernatant. The IL-1 activity in the IL-1 induction supernatant was evaluated by measuring the growth inhibitory activity of IL-1 susceptible human melanoma cell A375 Met-Mix. The cells of A375 Met-Mix (2 × 10³ cells/0.1 mℓ/well) were suspended in RPMI 1640 medium containing 10% FCS, and the IL-1 induction supernatant (0.1 mℓ/well) diluted in steps was added and incubated in a 96-well plate for 96 hours at 37°C in the presence of 5% carbon dioxide. After incubation, the viable cells were fixed with methanol, and the cells were stained with 0.2% crystal violet, and the cells were dissolved with 1% SDS, and the absorbance at 550 nm was measured. […]

spleen cells = test: Mitogen activity (³H-thymidine uptake into spleen cells); format: cell-based, C3H/HeN mouse; conditions: 48 hours incubation
Protocol: The mitogen activity was evaluated in the following experiment [see Eur. J. Immunol., Vol. 14, 109 - 114, 1984].
The spleen of C3H/HeN mouse (male, 6 - 10 weeks old) was aseptically removed, rubbed and loosened in MEM, and passed through stainless steel mesh, and spleen cells were sampled. After hemolyzing the erythrocytes mixed in the spleen cells, the cells were suspended in RPMI 1640 medium containing 5% FBS and presented for the experiment.
The mitogen activity of the compound of the invention was evaluated by measuring the quantity of ³H-thymidine taken into the spleen cells treated with the compound of the invention. That is, the spleen cells adjusted to 5 × 10⁶ cells/well (100 µℓ) were seeded in a 96-well plate, and the compound of the invention (100 µℓ) at specified concentration was added to the spleen cells. After incubation for 48 hours at 37°C in the presence of 5% carbon dioxide, 1 µCi/well (50 µℓ) of ³H-thymidine was added to the incubated cells, which were incubated for further 4 hours. The cells were washed in phosphate buffer saline (PBS), and the titer of ³H-thymidine (radioactivity) taken in the cells was determined by liquid scintillation counter. […]

TNF = TNF producing activity (TNF in serum measured by damage of L929 cells); format: in vivo, ICR mouse; conditions: Corynebacterium parvum primed mouse, 10 µg/mouse intravenously nine days later, blood sampled 90 minutes later; reciprocal of serum dilution showing 50% cytotoxicity
Protocol: The producing activity of TNF was evaluated in the following experiment.
The first stimulating agent, 5% suspension (0.2 mℓ physiological saline) of Corynebacterium parvum was intravenously administered to ICR mouse (female, 6 - 7 weeks old). Nine days later, as the second stimulating agent, 10 µg/mouse of the compound of the invention was intravenously administered, and 90 minutes later, 0.5 to 1 mℓ of blood was sampled from the retro-orbital plexus. After being allowed to stand at room temperature for 5 to 6 hours, the blood was centrifuged at 7200 × g for 5 minutes to separate the serum. The serum was incubated at 56°C for 30 minutes for inactivation before use in the following experiment.
The TNF activity in serum was determined by measuring the damage of L929 cells were adjusted to a concentration of 6 × 10⁴ cells/well (0.1 mℓ) on the culture medium of RPMI 1640 containing 10% of fetal bovine serum (FBS) and 2 µg/mℓ of actinomycin D, and were seeded on a 96-well plates. The serum was diluted in steps in the RPMI 1640 medium with 10% FBS, and added to the cell by 0.1 mℓ for each. After incubation for 48 hours at 37°C, the viable cells were fixed with methanol. After staining the cells with 0.2% crystal violet, the cells were dissolved in 1% sodium dodecyl sulfate (SDS), and the absorbance at 550 nm was measured. […]

[1] = Lethal toxicity by galactosamine loading; design: species or system C57BL mouse; conditions: mouse, in vivo, ip; 10 mg D-galactosamine hydrochloride intraperitoneally, compound in the caudal vein immediately after; observed to the seventh day; read-out: LD₅₀ (Galactosamine load)
Protocol: The lethal toxicity by galactosamine loading was evaluated in the following experiment [see J. Biochem., Vol. 98, 395 - 406, 1985].
To C57BL mouse (female, 7 weeks old), 10 mg of D-galactosamine hydrochloride was intraperitoneally administered, and the compound of the invention was administered in the caudal vein immediately after that.

[2] = compound concentration 10 µg/mℓ

SMILES	Stimulation percentage (neutrophils)	IL-1 titer (interleukin-1 (IL-1)) [U/mℓ]	Simulation index (spleen cells; compound concentration 1 µg/mℓ)	Simulation index (spleen cells; [2])	TNF titer in serum (TNF) [U/mℓ]	LD50 at 168 h [1] [mg/kg]
CCCCCCCCCCCCCCC(CCCCCCCCCCCC)C(=O)O[C@H]1[C@H](OP(=O)(O)O)[C@@H](COC(=O)C(C)(C)C)OC[C@@H]1NC(=O)C[C@H](O)CCCCCCCCCCC (mixture of isomers) [Example 4, 1,5-Anhydro-2-deoxy-3-O-{(2RS)-2-dodecylhexadecanoyl}-2-{(3R)-3-hydroxytetradecanamido}-4-O-phosphono-6-O-pivaloyl-D-glucitol]	293	16	5.1	19.6	–	–
CCCCCCCCCCCCCCC(CCCCCCCCCCCC)C(=O)O[C@H]1[C@H](OP(=O)(O)O)[C@@H](CO)OC[C@@H]1NC(=O)C[C@H](O)CCCCCCCCCCC (stereo partly shown) [Control compound, reference compound]	80	15	2.7	18.3	538900	0.0028
CCCCCCCCCCCCCCC(CCCCCCCCCCCC)C(=O)O[C@H]1[C@H](OP(=O)(O)O)[C@@H](COC(=O)CCC(=O)OC)OC[C@@H]1NC(=O)C[C@H](O)CCCCCCCCCCC (stereo partly shown) [Example 1]	363	24	14.8	26.5	727800	0.0299
